{
  "source": "patent US20220225611A1",
  "about": "“NON-NATURAL INSECT PHEROMONE BLEND COMPOSITIONS” (Provivi, Inc., priority 2019, published 2022)",
  "origin": "cited, not measured here",
  "key": {"C. suppressalis": {"test_system": "C. suppressalis", "details": "Chen et al. (2018)"}, "S. incertulas": {"test_system": "S. incertulas", "details": "Cork & Souza (1996)"}},
  "data": [
    {"smiles": "CCCCCCCC/C=C\\CCCCCCCC=O", "note": "[Z9-18Ald, (Z)-9-Octadecenal]", "values": [
      {"measurement": "effect on attractiveness of a pheromone mixture", "setting": "C. suppressalis", "result": "reduces the attractiveness"}
    ]},
    {"smiles": "CCCC/C=C\\CCCCCCCCCCCC=O", "note": "[Z13-18Ald, (Z)-13-Octadecenal]", "values": [
      {"measurement": "effect of presence in a pheromone blend on mating disruption", "setting": "S. incertulas", "result": "not be produce increased mating disruption"}
    ]}
  ]
}
